Test results reported in US20240325424A1, “Pharmaceutical Compositions And Methods For Treating Neoplasia” (priority 2021, published 2024).
Values after ≈ are worked out from the molar mass of the structure shown.

Legend:
[1] = tested on: avian-origin influenza A (H7N9); details: cited from earlier work
a virus = details: virus of Chan et al., 2013, p. 612; cited from earlier work
RSV = assay: antiviral test RSV; type: cell-based; details: human respiratory syncytial virus
[2] = tested on: seasonal influenza A(H3N2) virus; details: To et al. (2016); cited from earlier work
[3] = tested on: pandemic flu H1/415, A/Hong Kong/415742/2009, A(H1N1)pdm09; details: To et al. (2016); cited from earlier work
Norovirus = Norovirus test; type: cell-based
Influenza A H1N1 = assay: antiviral test Influenza A H1N1; type: cell-based; details: Influenza A virus

**Q.** What does the source list for COc1c(C)c2c(c(O)c1C/C=C(\C)CCC(=O)O)C(=O)OC2 [mycophenolic acid, 6-(4-hydroxy-6-methoxy-7-methyl-3-oxo-1,3-dihydroisobenzofuran-5-yl)-4-methyl-hex-4-enoic acid]?
**A.** effectiveness against virus [1]: effective; EC50 (a virus): 0.17 µg/mL (≈ 0.531 µM); EC50 (RSV): < 0.1 µg/mL; effectiveness against virus [2]: effective; effectiveness against virus [3]: effective; EC50 (Norovirus): 0.151 µg/mL (≈ 0.471 µM); EC50 (Influenza A H1N1): < 0.1 µg/mL
